# Laboratory results from patent US8410310B2, “Trypsin-like serine protease inhibitors, and their preparation and use” (The Medicines Company (Leipzig) GmbH, priority 2006, dated 2013).
# Several values for one entry are separate records, joined by “and”; a condition that tells them apart may be missing. Equal values may be shown once. Read-outs that look alike come from different tables or passages of the source.
# Tests used:
# [1] = biological target: T1, Human factor Xa (Homo sapiens, UniProt P00742); assay: Inhibition constants against purified human serine proteases: FXa; assay type: biochemical; conditions: for Ki: 50 mM Tris-HCl pH 8.0, 154 mM NaCl, Pefachrome FXa
# T1 construct: Human factor Xa, factor XIa, factor XIIa, thrombin, and plasma kallikrein were purchased; purchased Enzyme Research Laboratories (via Haemochrom, Essen)
# T1 sequence (P00742 235-488 limits assumed): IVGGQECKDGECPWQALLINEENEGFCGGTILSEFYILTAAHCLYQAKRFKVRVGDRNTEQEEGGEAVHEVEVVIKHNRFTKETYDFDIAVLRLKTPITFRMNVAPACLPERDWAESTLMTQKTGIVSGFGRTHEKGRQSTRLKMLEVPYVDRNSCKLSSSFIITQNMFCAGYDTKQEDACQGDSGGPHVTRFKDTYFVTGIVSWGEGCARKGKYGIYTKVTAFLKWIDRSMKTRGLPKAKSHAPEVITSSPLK
# T1 sequence (P00742 41-179 partner limits assumed): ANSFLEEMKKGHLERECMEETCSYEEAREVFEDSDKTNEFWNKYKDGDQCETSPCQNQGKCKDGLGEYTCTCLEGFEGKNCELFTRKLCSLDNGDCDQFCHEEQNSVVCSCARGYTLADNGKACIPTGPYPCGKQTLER
# Source text: (§1) Aprotinin and tranexamic acid were purchased from SIGMA (Schnelldorf, Germany). Human factor Xa, factor XIa, factor XIIa, thrombin, and plasma kallikrein were purchased from Enzyme Research Laboratories, and human plasmin from Chromogenix (both via Haemochrom, Essen, Germany). Various synthetic peptide chromogenic substrates used for determination of inhibition constants were obtained from Pentapharm (Basel, Switzerland), Roche (Mannheim, Germany), and Chromogenix: Chromozyme PL for plasmin, S2302 for plasma kallikrein, Pefachrome FXa for factor Xa, Chromozym XII for FXIIa, Pefachrom tPA for thrombin, and Pefachrome PCa for factor XIa. Tissue-type plasminogen activator was obtained from Boehringer Ingelheim (Ingelheim, Germany). INTEM, EXTEM and STARTEM reagents and disposables for ROTEM® measurements were obtained from Pentapharm (Munich, Germany).
# (§2) Inhibition of purified human serine proteases by Compound No. 3 and aprotinin was studied using the established methods described herein in Example 3 (i.e., Stürzebecher et al., 1997). Enzyme kinetic experiments were carried out in 96-well flat-bottom plates (Brand, Wertheim, Germany) in 50 mM Tris-HCl pH 8.0, 154 mM NaCl in the presence of different substrate and inhibitor concentrations. Steady-state velocities of substrate conversion were obtained from progress curves generated by continuous monitoring of the absorbance at 405 nm with a microplate reader (Multiskan Ascent, Thermo Electron Corporation, Dreieich, Germany). […] Inhibition constants (Ki) were calculated from non-linear fits of individual data sets to the Michaelis-Menten equation for competitive inhibitors using an enzyme kinetic analysis software (SIGMA Plot® 9.0 Enzyme Kinetics Module, SSI, San Jose, Calif.). Dixon plot analysis was applied to confirm the competitive inhibition mode.
# [2] = biological target: T2, Human factor XIa (Homo sapiens, UniProt P03951); assay: Inhibition constants against purified human serine proteases: FXIa; assay type: biochemical
# T2 construct: Human factor Xa, factor XIa, factor XIIa, thrombin, and plasma kallikrein were purchased; purchased Enzyme Research Laboratories (via Haemochrom, Essen)
# T2 sequence (P03951 388-625 limits assumed): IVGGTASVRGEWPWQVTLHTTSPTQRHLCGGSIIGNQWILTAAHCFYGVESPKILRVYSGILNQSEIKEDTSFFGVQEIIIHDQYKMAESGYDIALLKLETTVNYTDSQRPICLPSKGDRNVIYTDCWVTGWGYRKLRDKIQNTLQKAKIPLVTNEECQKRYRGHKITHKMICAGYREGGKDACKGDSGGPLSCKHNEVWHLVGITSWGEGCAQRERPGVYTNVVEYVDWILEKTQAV
# T2 sequence (P03951 19-387 partner limits assumed): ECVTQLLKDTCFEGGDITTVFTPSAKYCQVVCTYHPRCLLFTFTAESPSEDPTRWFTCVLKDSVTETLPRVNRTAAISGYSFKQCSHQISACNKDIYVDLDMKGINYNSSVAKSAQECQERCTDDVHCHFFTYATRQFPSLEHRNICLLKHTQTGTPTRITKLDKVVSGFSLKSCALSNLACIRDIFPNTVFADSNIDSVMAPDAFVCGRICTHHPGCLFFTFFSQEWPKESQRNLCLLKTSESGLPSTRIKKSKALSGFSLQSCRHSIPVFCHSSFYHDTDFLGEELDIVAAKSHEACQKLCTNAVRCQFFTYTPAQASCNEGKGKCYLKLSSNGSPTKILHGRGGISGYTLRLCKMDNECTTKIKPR
# Source text: as §1, with “Tissue-type plasminogen activator was obtained from Boehringer Ingelheim (Ingelheim, Germany). INTEM, EXTEM and STARTEM reagents and disposables for ROTEM® measurements were obtained from Pentapharm (Munich, Germany).” left out
# as §2, with “Enzyme kinetic experiments were carried out in 96-well flat-bottom plates (Brand, Wertheim, Germany) in 50 mM Tris-HCl pH 8.0, 154 mM NaCl in the presence of different substrate and inhibitor concentrations.” left out, “Dixon plot analysis was applied to confirm the competitive inhibition mode.” left out
# [3] = biological target: T3, Human factor XIIa (alpha) (Homo sapiens, UniProt P00748); assay: Inhibition constants against purified human serine proteases: FXIIa; assay type: biochemical; conditions: 50 mM Tris-HCl pH 8.0, 154 mM NaCl, Chromozym XII
# T3 construct: Human factor Xa, factor XIa, factor XIIa, thrombin, and plasma kallikrein were purchased; purchased Enzyme Research Laboratories (via Haemochrom, Essen)
# T3 sequence (P00748 373-615 limits assumed): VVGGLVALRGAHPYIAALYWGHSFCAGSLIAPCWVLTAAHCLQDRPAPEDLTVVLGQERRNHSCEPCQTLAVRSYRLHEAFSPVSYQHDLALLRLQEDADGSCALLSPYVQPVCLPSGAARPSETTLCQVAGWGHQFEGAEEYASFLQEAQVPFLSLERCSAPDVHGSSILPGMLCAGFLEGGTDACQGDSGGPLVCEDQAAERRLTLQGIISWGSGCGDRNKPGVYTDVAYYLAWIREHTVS
# T3 sequence (P00748 20-372 partner limits assumed): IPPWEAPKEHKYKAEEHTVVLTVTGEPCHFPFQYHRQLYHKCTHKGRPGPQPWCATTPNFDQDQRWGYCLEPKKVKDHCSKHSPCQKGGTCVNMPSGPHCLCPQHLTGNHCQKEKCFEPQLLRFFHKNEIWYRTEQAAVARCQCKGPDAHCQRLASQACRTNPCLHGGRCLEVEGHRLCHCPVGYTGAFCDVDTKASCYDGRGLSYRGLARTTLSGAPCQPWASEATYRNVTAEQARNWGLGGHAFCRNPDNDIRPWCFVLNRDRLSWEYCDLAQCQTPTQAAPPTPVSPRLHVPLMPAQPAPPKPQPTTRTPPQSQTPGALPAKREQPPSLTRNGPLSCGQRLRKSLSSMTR
# Source text: as §1, with “Tissue-type plasminogen activator was obtained from Boehringer Ingelheim (Ingelheim, Germany). INTEM, EXTEM and STARTEM reagents and disposables for ROTEM® measurements were obtained from Pentapharm (Munich, Germany).” left out
# as §2, with “Enzyme kinetic experiments were carried out in 96-well flat-bottom plates (Brand, Wertheim, Germany) in 50 mM Tris-HCl pH 8.0, 154 mM NaCl in the presence of different substrate and inhibitor concentrations.” left out, “Dixon plot analysis was applied to confirm the competitive inhibition mode.” left out
# [4] = Terminal half-life in rats; conditions: rat, in vivo
# [5] = Terminal half-life in dogs; conditions: dog, in vivo
# [6] = biological target: T4, plasmin (Homo sapiens, UniProt P00747); assay: Determination of inhibition constants for plasmin; assay type: biochemical; design: purchased Calbiochem; conditions: 25° C., substrate Chromozym PL, pH 8.0; read-out: Plasmin [Ki]
# T4 sequence (P00747 581-810 limits assumed): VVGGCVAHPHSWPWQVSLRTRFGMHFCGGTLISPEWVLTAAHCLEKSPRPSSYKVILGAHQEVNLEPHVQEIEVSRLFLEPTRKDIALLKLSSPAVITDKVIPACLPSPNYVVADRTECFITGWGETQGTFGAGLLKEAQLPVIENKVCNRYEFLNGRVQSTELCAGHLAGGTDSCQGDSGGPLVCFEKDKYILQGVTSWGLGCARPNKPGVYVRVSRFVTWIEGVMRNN
# T4 sequence (P00747 97-580 partner limits assumed): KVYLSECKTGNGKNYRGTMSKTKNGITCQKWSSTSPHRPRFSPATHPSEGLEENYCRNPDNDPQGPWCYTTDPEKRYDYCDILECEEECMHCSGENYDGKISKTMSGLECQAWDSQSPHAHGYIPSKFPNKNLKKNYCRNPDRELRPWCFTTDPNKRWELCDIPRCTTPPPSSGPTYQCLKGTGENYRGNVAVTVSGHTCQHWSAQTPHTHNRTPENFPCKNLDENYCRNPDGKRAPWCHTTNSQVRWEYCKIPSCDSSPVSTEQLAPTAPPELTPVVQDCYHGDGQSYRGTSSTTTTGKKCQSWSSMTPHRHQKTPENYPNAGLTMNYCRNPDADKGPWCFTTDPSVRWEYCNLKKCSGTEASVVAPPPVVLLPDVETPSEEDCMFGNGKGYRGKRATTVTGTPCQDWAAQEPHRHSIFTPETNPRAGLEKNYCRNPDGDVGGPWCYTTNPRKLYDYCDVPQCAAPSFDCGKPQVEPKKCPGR
# Experimental: The inhibitory effect for the individual enzymes was determined in analogy to a previously disclosed method (Stürzebecher et al., 1997).
# For zero order kinetics, the reaction was stopped after 20 min by adding 25 μl of acetic acid (50% v/v), and the absorption at 405 nm was determined using a Microplate Reader (Multiscan Ascent, from Thermo). In the case of pseudo-first order kinetics, the reaction rates in the equilibrium state were ascertained by recording the reaction kinetics. The Ki values were ascertained either in accordance with Dixon (1953) by linear regression using a computer program or by parameter fitting in accordance with the rate equation for competitive inhibition. The Ki values are the average of at least two determinations.
# [7] = biological target: T4, plasmin; assay: Inhibition constants against purified human serine proteases: plasmin; assay type: biochemical; design: purchased Calbiochem; conditions: 50 mM Tris-HCl pH 8.0, 154 mM NaCl, Chromozyme PL
# Source text: as §1, with “Tissue-type plasminogen activator was obtained from Boehringer Ingelheim (Ingelheim, Germany). INTEM, EXTEM and STARTEM reagents and disposables for ROTEM® measurements were obtained from Pentapharm (Munich, Germany).” left out
# as §2, with “Enzyme kinetic experiments were carried out in 96-well flat-bottom plates (Brand, Wertheim, Germany) in 50 mM Tris-HCl pH 8.0, 154 mM NaCl in the presence of different substrate and inhibitor concentrations.” left out, “Dixon plot analysis was applied to confirm the competitive inhibition mode.” left out
# [8] = biological target: Thrombin (Homo sapiens, UniProt P00734); assay: Inhibition constants against purified human serine proteases: thrombin; assay type: biochemical; design: Human factor Xa, factor XIa, factor XIIa, thrombin, and plasma kallikrein were purchased; purchased Enzyme Research Laboratories (via Haemochrom, Essen); conditions: 50 mM Tris-HCl pH 8.0, 154 mM NaCl, Pefachrom tPA
# Source text: as §1, with “Tissue-type plasminogen activator was obtained from Boehringer Ingelheim (Ingelheim, Germany). INTEM, EXTEM and STARTEM reagents and disposables for ROTEM® measurements were obtained from Pentapharm (Munich, Germany).” left out
# as §2, with “Enzyme kinetic experiments were carried out in 96-well flat-bottom plates (Brand, Wertheim, Germany) in 50 mM Tris-HCl pH 8.0, 154 mM NaCl in the presence of different substrate and inhibitor concentrations.” left out, “Dixon plot analysis was applied to confirm the competitive inhibition mode.” left out
# [9] = cited from earlier work
Molecule,Ki [1] [nM],stronger inhibition of FXa than aprotinin ([1]; versus aprotinin) [fold],"Ki ([2]; 50 mM Tris-HCl pH 8.0, 154 mM NaCl, Pefachrome PCa) [nM]",stronger inhibition of FXIa than aprotinin ([2]; versus aprotinin) [fold],Ki [3] [nM],half-life [4] [min],half-life [5] [min],Ki [6] [nM],Ki [7],Ki [8] [nM],risk of myocardial infarction and apoplectic stroke ([9]; by comparison with the control groups),"number of cases of kidney damage, making dialysis necessary ([9]; comparison with ε-aminocaproic acid or tranexamic acid (Mangano et al., 2006))",risk of an anaphylactic shock ([9]; first administration) [%],risk of an anaphylactic shock ([9]; repeated administration within 200 days)
"N=C(N)c1ccc(CNC(=O)[C@H](Cc2cccc(CN)c2)NC(=O)[C@@H](CCCc2ccccc2)NS(=O)(=O)Cc2cccc(C(=O)O)c2)cc1 [compound 3, 3-HOOC-Bzls-d-Ppg-Phe(3-Ame)-4-Amba×2 acetate]",45 ± 5,1200,18 ± 1,100,5200 ± 400,20,20,< 10,2.3 nM and 2.2 nM,1700 ± 200,–,–,–,–
aprotinin,55600,–,–,–,–,–,–,–,–,76000,increased,doubling,< 0.1,4-5%
